According to patent publication US8785149B2, “In vitro cellular bioassay for neurotoxicity testing” (The Arizona Board of Regents on Behalf of the University of …, priority 2010, dated 2014):
Entries after “also recorded” stand apart in the source; their conditions may differ.

Legend:
[1] = test system: fascin-deficient singed-mutant neurons; assay: Primary neuron culture neurotoxicity screen, fascin-deficient neurons; details: 3 days in vitro; for neurotoxic defects: 10 and 50 μM, phase-contrast morphology; for beads-on-a-string (BOS) defect (intra-neurite nodules): singed (sn) mutant larval CNS neurons; for BOS effect in sn-mutant, fascin-deficient neurons relative to wild-type: at each dose; for BOS density versus dose: wild-type and sn-mutant neurons, randomly selected neurons
Excerpt: Following this enzymatic treatment, the tissue is washed and then mechanically triturated in culture medium to dissociate it into single cells.

[2] = test system: wild-type (OreRC) neurons
[3] = test system: cultured neurons with mutations in the Drosophila fragile X mental retardation 1 gene (dfmr1); format: cell-based
Excerpt: In this case, the genetic control was designed (Michel et al. (2004). J. Neurosci., 23:5798-5809) to be identical in every possible way, except for the presence or absence of a normal dfmr1 gene.

| SMILES | neurotoxic defects [1] | beads-on-a-string (BOS) defect (intra-neurite nodules) [1] | further results |
| --- | --- | --- | --- |
| COc1ccc(C[C@H]2NC[C@H](O)[C@H]2OC(C)=O)cc1 [anisomycin] | overt neurotoxic defects | – | – |
| CC(C)c1c(C(=O)Nc2ccccc2)c(-c2ccccc2)c(-c2ccc(F)cc2)n1CC[C@@H](O)C[C@@H](O)CC(=O)O [atorvastatin] | – | beads-on-a-string (BOS) defect; also recorded: induced | neurite outgrowth [2]: inhibition of neurite outgrowth |
| C[C@@H]1C[C@@H]([C@H](O)CC2CC(=O)NC(=O)C2)C(=O)[C@@H](C)C1 [cycloheximide] | overt neurotoxic defects | – | – |
| CC[C@H](C)C(=O)O[C@H]1C[C@@H](C)C=C2C=C[C@H](C)[C@H](CC[C@@H]3C[C@@H](O)CC(=O)O3)[C@H]21 [lovastatin] | – | beads-on-a-string (BOS) defect; also recorded: induced | – |
| C[C@@H]1O[C@@H](O[C@H]2C[C@@H](O)[C@]3(CO)[C@H]4[C@H](O)C[C@]5(C)[C@@H](C6=CC(=O)OC6)CC[C@]5(O)[C@@H]4CC[C@]3(O)C2)[C@H](O)[C@H](O)[C@H]1O [ouabain] | overt neurotoxic defects | – | – |
| CC(=O)O[C@H]1C(=O)[C@@]2(C)[C@H]([C@H](OC(=O)c3ccccc3)[C@]3(O)C[C@H](OC(=O)[C@H](O)[C@@H](NC(=O)c4ccccc4)c4ccccc4)C(C)=C1C3(C)C)[C@]1(OC(C)=O)CO[C@@H]1C[C@@H]2O [paclitaxel] | overt neurotoxic defects | – | – |
| CC[C@H](C)C(=O)O[C@H]1C[C@H](O)C=C2C=C[C@H](C)[C@H](CC[C@@H](O)C[C@@H](O)CC(=O)O)[C@H]21 [pravastatin] | – | beads-on-a-string (BOS) defect; also recorded: induced | severity of BOS defect in dfmr1-mutant neurons versus control neurons [3]: less severe BOS defect; BOS effect in sn-mutant, fascin-deficient neurons relative to wild-type [1]: enhanced the sensitivity; BOS density versus dose [1]: increased with dose |
| CC(C)c1nc(N(C)S(C)(=O)=O)nc(-c2ccc(F)cc2)c1/C=C/[C@@H](O)C[C@@H](O)CC(=O)O [rosuvastatin] | – | beads-on-a-string (BOS) defect; also recorded: induced | BOS effect in sn-mutant, fascin-deficient neurons relative to wild-type [1]: enhanced the sensitivity; BOS density versus dose [1]: increased with dose |
| C[CH2][Hg][S]c1ccccc1C(=O)[O-].[Na+] [thimerosal] | overt neurotoxic defects | – | – |
